This assay addresses T1, PASK (Invitrogen) (Homo sapiens, UniProt Q96RG2).
T1 construct: IC50 Kinase Domain; purchased Invitrogen
In words: PAS Kinase FRET Assay. The format is biochemical. The following applies: PAS kinase TR-FRET assay (665 nm/615 nm); read-out: IC50 Kinase Domain. The source says:
Biochemical Assay for hPASK Activity
The aim of the FRET assay is to determine the inhibition potential of test compounds on targeted kinase. This assay platform provides a homogenous screening method for measuring kinase activity by quantitating the amount of phospho-substrate in solution following a kinase reaction.
In the presence of kinase and ATP, the Ulight-peptide is phosphorylated and captured by an anti-phospho-substrate antibody, which brings the Eu chelate donor and Ulight acceptor dyes into close proximity. Upon excitation at 340 nm, the Eu chelate transfers its energy to the Ulight dye, resulting in a fluorescent light emission at 665 nm.
Titration of kinase at 1 mM ATP was achieved via the following protocol. After making serial three-fold dilutions of PASK (Invitrogen) in reaction buffer across the plate; 5 μl of kinase dilution and 5 μl substrate/ATP mix were added to the wells of the white Optiplate-384 (PerkinElmer). The contents of the plate were and incubated at RT for 1 h. The reaction was stopped by adding 5 μl of stop solution to each test well followed by mixing and incubation at RT for 10 minutes. 5 μl of detection mix (detection antibody diluted in detection buffer) was added; the contents of the plate were mixed and then incubated in the dark for 1 hour at RT. The signal was recorded at TR-FRET mode (665 nm/615 nm). The results were graphed to calculate the EC50.
Titration of ATP at the EC50 concentration of kinase to determine ATP Km,app. was performed using the following method. After making serial dilutions of ATP (Invitrogen), 5 μl of ATP dilution and 5 μl substrate/kinase mix were added to the wells of the white Optiplate-384 (PerkinElmer). The contents of the plate were and incubated at RT for 1 h. The reaction was stopped by adding 5 μl of stop solution to each test well followed by mixing and incubation at RT for 10 minutes. 5 μl of detection mix (detection antibody diluted in detection buffer) was added; the contents of the plate were mixed and then incubated in the dark for 1 hour at RT. The signal was recorded at TR-FRET mode (665 nm/615 nm). The results were graphed to calculate the EC50 as the ATP Km,app.
Compound screening was done via the following method. 10 mM stock solution of test compound in DMSO was prepared by dissolving test compound in DMSO at RT for 1 hour, and then sonicating at 100% output for 8 minutes. If compound is not soluble under this condition, it was diluted to 3 mM. Kinase reaction buffer was prepared containing 10 mM MgCl2, 50 mM HEPES, 1 mM EGTA, 0.01% TWEEN-20, 2 mM DTT. Serial dilutions of the test compounds were prepared at 4× final assay concentrations using Freedom EVO200® dispensing system as follows: 12×10^−5 M, 4×10^−5 M, 1.33×10^−5 M, 4.44×10^−6 M, 1.48×10^−6 M, 4.92×10^−7 M, 1.65×10^−7 M, […], 1.82×10^−8M, 6.09×10^−9, 2.03×10^−9 M. Test compounds (2.5 μl at 4× the final assay concentration) was added to wells using Freedom EVO200® dispensing system. As a positive control, 2.5 μl of positive compound was added to assay wells, and 2.5 μl of DMSO to assay wells as vehicle control. Kinase solution was prepared in reaction buffer at 2× final assay concentration. Kinase solution (5 μl) was added to each well of the assay plate. The substrate and ATP solution was prepared in kinase reaction buffer at 4× final assay concentration. The kinase reaction was started by adding 2.5 μl of substrate+ATP mix solution to each well of the assay plate. The plate is mixed on a plate shaker; then covered and allowed to react for 2 hours in the dark at 25° C. without shaking. The reaction was stopped by adding 5 μl of stop solution to each test well followed by mixing and incubation at RT for 10 minutes in the dark. 5 μl of detection mix (detection antibody diluted in detection buffer) was added; the contents of the plate were mixed and then incubated in the dark for 1 hour at RT. The signal was recorded at TR-FRET mode (665 nm/615 nm).
A general note: Time-resolved FRET reads energy transfer from a long-lived donor to a nearby acceptor.

A value given as a limit tells only on which side of the number the result lay.

T1 sequence (Q96RG2 999-1251 limits assumed): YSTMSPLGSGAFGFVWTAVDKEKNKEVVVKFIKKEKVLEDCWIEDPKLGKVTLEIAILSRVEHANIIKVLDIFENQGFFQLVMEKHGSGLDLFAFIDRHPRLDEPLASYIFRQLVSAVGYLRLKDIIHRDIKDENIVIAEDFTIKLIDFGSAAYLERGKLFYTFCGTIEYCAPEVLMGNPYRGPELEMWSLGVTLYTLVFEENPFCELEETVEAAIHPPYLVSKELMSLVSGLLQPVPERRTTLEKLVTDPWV

The IC50 is the concentration needed to halve the response being measured. Take `CCNC(=O)Cc1cnn2c(=O)cc(-c3ccc(Cl)c(OC)c3)[nH]c12` [Example 80, 2-[5-(4-chloro-3-methoxyphenyl)-7-oxo-4H,7H-pyrazolo[1,5-a]pyrimidin-3-yl]-N-ethylacetamide]: the IC50 is ≤ 10 µM.

Regarding `Cc1cnc(-c2cnn3c(=O)cc(-c4ccc(Cl)c(Cl)c4)[nH]c23)s1` [Example 102, 5-(3,4-dichlorophenyl)-3-(5-methylthiazol-2-yl)pyrazolo[1,5-a]pyrimidin-7(4H)-one], the IC50 is ≤ 10 µM.

For the molecule `COc1cc(-c2cc(=O)n3ncc(-c4nccs4)c3[nH]2)ccc1Cl` [Example 39, 5-(4-chloro-3-methoxyphenyl)-3-(thiazol-2-yl)-4H,7H-pyrazolo[1,5-a]pyrimidin-7-one], the IC50 was ≤ 10 µM.

Take `Cc1cnc(-c2cnn3c(=O)cc(-c4ccc5c(C)noc5c4)[nH]c23)o1` [Example 119, 5-(3-Methylbenzo[d]isoxazol-6-yl)-3-(5-methyloxazol-2-yl)pyrazolo[1,5-a]pyrimidin-7(4H)-one]: the IC50 was ≤ 10 µM.

Turning to `N#Cc1cc(-c2cc(=O)n3ncc(-c4ncco4)c3[nH]2)ccc1O` [Example 75, 2-hydroxy-5-(3-(oxazol-2-yl)-7-oxo-4,7-dihydropyrazolo[1,5-a]pyrimidin-5-yl)benzonitrile], the IC50 is ≤ 10 µM.

`Cc1noc(-c2cnn3c(=O)cc(-c4ccc(Cl)c(OCC(F)(F)F)c4)[nH]c23)n1` [Example 92, 5-[4-chloro-3-(2,2,2-trifluoroethoxy)phenyl]-3-(3-methyl-1,2,4-oxadiazol-5-yl)-4H,7H-pyrazolo[1,5-a]pyrimidin-7-one]: the half-maximal inhibitory concentration (IC50) was ≤ 10 µM.

On to `O=c1cc(-c2ccc3occc3c2)[nH]c2c(-c3nccs3)cnn12` [Example 44, 5-(benzofuran-5-yl)-3-(thiazol-2-yl)pyrazolo[1,5-a]pyrimidin-7(4H)-one], for which the IC50 is ≤ 10 µM.

On to `CCc1noc2cc(-c3cc(=O)n4ncc(C(N)=O)c4[nH]3)ccc12` [Example 123, 5-(3-ethylbenzo[d]isoxazol-6-yl)-7-oxo-4,7-dihydropyrazolo[1,5-a]pyrimidine-3-carboxamide], for which the IC50 was ≤ 10 µM.

`CCc1nn2c(=O)cc(-c3ccc4c(cnn4CC)c3)[nH]c2c1-c1nc(C)no1` [Example 114, 2-ethyl-5-(1-ethyl-1H-indazol-5-yl)-3-(3-methyl-1,2,4-oxadiazol-5-yl)pyrazolo[1,5-a]pyrimidin-7(4H)-one]: the half-inhibitory concentration (IC50) was ≤ 10 µM.

On to `Cc1cnc(-c2cnn3c(=O)cc(-c4ccc(Cl)cc4)[nH]c23)o1` [Example 47, 5-(4-chlorophenyl)-3-(5-methyloxazol-2-yl)pyrazolo[1,5-a]pyrimidin-7(4H)-one], for which the IC50 is ≤ 10 µM.

As to `CCn1ncc2cc(-c3cc(=O)n4ncc(-c5nc6ccccc6s5)c4[nH]3)ccc21` [Example 40, 3-(benzo[d]thiazol-2-yl)-5-(1-ethyl-1H-indazol-5-yl)pyrazolo[1,5-a]pyrimidin-7(4H)-one], the IC50 is ≤ 10 µM.

With `CCOc1cc(-c2cc(=O)n3ncc(-c4ncc(C)o4)c3[nH]2)ccc1F` [Example 36, 5-(3-ethoxy-4-fluorophenyl)-3-(5-methyloxazol-2-yl)-4H,7H-pyrazolo[1,5-a]pyrimidin-7-one], the IC50 is ≤ 10 µM.

Take `CNC(=O)Cc1cnn2c(=O)cc(-c3ccc(Cl)c(OC)c3)[nH]c12` [Example 81, 2-(5-(4-chloro-3-methoxyphenyl)-7-oxo-4,7-dihydropyrazolo[1,5-a]pyrimidin-3-yl)-N-methylacetamide]: the IC50 was ≤ 10 µM.

`Cc1noc(-c2cnn3c(=O)cc(-c4ccc(Cl)cc4)[nH]c23)n1` [Example 7, 5-(4-chlorophenyl)-3-(3-methyl-1,2,4-oxadiazol-5-yl)-4H,7H-pyrazolo[1,5-a]pyrimidin-7-one]: the IC50 is ≤ 10 µM.

In the case of `Cc1coc(-c2cnn3c(=O)cc(-c4ccc5[nH]nnc5c4)[nH]c23)n1` [Example 11, 5-(1H-1,2,3-benzotriazol-5-yl)-3-(4-methyl-1,3-oxazol-2-yl)-4H,7H-pyrazolo[1,5-a]pyrimidin-7-one], the IC50 is ≤ 10 µM.

Regarding `Cn1ncc2cc(-c3cc(=O)n4ncc(C#N)c4[nH]3)ccc21` [Example 108, 5-(1-methyl-1H-indazol-5-yl)-7-oxo-4H,7H-pyrazolo[1,5-a]pyrimidine-3-carbonitrile], the IC50 was ≤ 10 µM.

As for `O=c1cc(-c2ccc(Cl)cn2)[nH]c2c(-c3ncco3)cnn12` [Example 113, 5-(5-chloropyridin-2-yl)-3-(1,3-oxazol-2-yl)-4H,7H-pyrazolo[1,5-a]pyrimidin-7-one], the IC50 is > 10 µM.

As for `CCc1cnc(-c2cnn3c(=O)cc(-c4ccc5c(c4)OCO5)[nH]c23)o1` [Example 14, 5-(2H-1,3-benzodioxol-5-yl)-3-(5-ethyl-1,3-oxazol-2-yl)-4H,7H-pyrazolo[1,5-a]pyrimidin-7-one], the half-maximal inhibitory concentration (IC50) was ≤ 10 µM.

With `CCn1ncc2cc(-c3cc(=O)n4ncc(-c5nccs5)c4[nH]3)ccc21` [Example 26, 5-(1-ethyl-1H-indazol-5-yl)-3-(thiazol-2-yl)-4H,7H-pyrazolo[1,5-a]pyrimidin-7-one], the half-inhibitory concentration (IC50) is ≤ 10 µM.

For `CCCn1ncc2cc(-c3cc(=O)n4ncc(-c5ncc(C)o5)c4[nH]3)ccc21` [Example 103, 3-(5-methyloxazol-2-yl)-5-(1-propyl-1H-indazol-5-yl)pyrazolo[1,5-a]pyrimidin-7(4H)-one], the IC50 was ≤ 10 µM.

In the case of `CCc1coc(-c2cnn3c(=O)cc(-c4ccc5c(cnn5CC)c4)[nH]c23)n1` [Example 28, 5-(1-ethyl-1H-indazol-5-yl)-3-(4-ethyloxazol-2-yl)pyrazolo[1,5-a]pyrimidin-7(4H)-one], the IC50 is ≤ 10 µM.

Consider `COc1nn2c(=O)cc(-c3ccc(Cl)cc3)[nH]c2c1-c1nc(C)no1` [Example 10, 5-(4-chlorophenyl)-2-methoxy-3-(3-methyl-1,2,4-oxadiazol-5-yl)-4H,7H-pyrazolo[1,5-a]pyrimidin-7-one], for which the IC50 is ≤ 10 µM.

For the molecule `Cc1noc2cc(-c3cc(=O)n4ncc(-c5ncco5)c4[nH]3)ccc12` [Example 118, 5-(3-methylbenzo[d]isoxazol-6-yl)-3-(oxazol-2-yl)pyrazolo[1,5-a]pyrimidin-7(4H)-one], the IC50 is ≤ 10 µM.

As to `CCn1ncc2ccc(-c3cc(=O)n4ncc(-c5ncco5)c4[nH]3)cc21` [Example 109, 5-(1-ethyl-1H-indazol-6-yl)-3-(oxazol-2-yl)pyrazolo[1,5-a]pyrimidin-7(4H)-one], the IC50 was ≤ 10 µM.

Turning to `O=c1cc(-c2ccc(Cl)cc2)[nH]c2c(-c3ncco3)cnn12` [Example 48, 5-(4-chlorophenyl)-3-(oxazol-2-yl)pyrazolo[1,5-a]pyrimidin-7(4H)-one], the IC50 is ≤ 10 µM.

On to `Cc1coc(-c2cnn3c(=O)cc(-c4ccc5onc(C)c5c4)[nH]c23)n1` [Example 90, 5-(3-methylbenzo[d]isoxazol-5-yl)-3-(4-methyloxazol-2-yl)pyrazolo[1,5-a]pyrimidin-7(4H)-one], for which the IC50 is ≤ 10 µM.

These data come from patent US10392389B2, “Heterocyclic compounds for the inhibition of PASK” (BioEnergenix, LLC, priority 2012, dated 2019).
